The text below walks through data of ChEMBL document CHEMBL1201862, “PubChem BioAssay data set” (2004).

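Assay format: 96-well plates, 48-hour exposure. The concentration for 50% growth inhibition is given as GI50.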 The source made the active and inactive calls. No stated cut-off is given here; in the data, active = GI50 up to about 1.1 µM and inactive = higher.

Holding throughout (experiment): DTP human tumour cell line panel, 48 h
In assay [1] the test system is MOLT-4.
In assay [2] the test system is HCT-116.
Assay [3] has as its system OVCAR-8.
Assay [4] concerns UACC-62.
For assay [5], the system named is Hs-578T.
The test system of assay [6] is CCRF-CEM.
Assay [7] relates to HT-29.
Assay [8] has as its system NCI-H460.
For assay [9], the system named is SF-268.
Assay [10] has as its system MDA-MB-231.
The test system of assay [11] is CAKI-1.
The subject of assay [12] is K562.
Assay [13] relates to SF-295.
The subject of assay [14] is PC-3.
For assay [15], the system named is SNB-19.
For assay [16], the system named is MCF7.
In assay [17] the test system is SK-OV-3.
Assay [18] deals with HOP-62.
Assay [19] has as its system UACC-257.
In assay [20] the test system is LOX IMVI.

By GI50 is commonly meant the concentration giving 50% growth inhibition. As to `CN(/N=C/c1cccs1)c1ccc(Cl)cc1[N+](=O)[O-]`, the GI50 was 17.1 µM (inactive) in [1]; 26.2 µM (inactive) in [2]; 40.5 µM (inactive) in assay [3]; 47 µM (inactive) in [4]; 25.4 µM (inactive) in [5]; 19.1 µM (inactive) in assay [6]. The GI50 is 25.9 µM (inactive) in [7]; 23.3 µM (inactive) in [8]; 83.4 µM (inactive) in assay [9]; 14.2 µM (inactive) in assay [10]; 63.1 µM (inactive) in assay [11]; 5.78 µM (inactive) in assay [12]. In addition, the GI50 in [13] is 37.7 µM (inactive); in assay [14], 38.4 µM (inactive); in assay [15], 56.2 µM (inactive); in assay [16], 18 µM (inactive); in assay [17], 40.8 µM (inactive); in assay [18] it was 40.9 µM (inactive). For the same molecule, in [19], the GI50 was 35.6 µM (inactive).
As for `O=C1CCCCCCCCCCC1CN(Cc1ccccc1)Cc1ccccc1` (stereo unspecified), the GI50 was 17.3 µM (inactive) in assay [1]; 17.3 µM (inactive) in [2]; 75.3 µM (inactive) in assay [3]; 13.7 µM (inactive) in assay [4]; 22.4 µM (inactive) in assay [5]; 22.9 µM (inactive) in assay [20]. Besides, the GI50 in assay [6] was 19.9 µM (inactive); in [9], 40 µM (inactive); in assay [10] it was 77.6 µM (inactive); in [12] it was 36.3 µM (inactive); in assay [13] it was 32.6 µM (inactive); in assay [14] it was 30.9 µM (inactive). For the same molecule, the GI50 is 34.9 µM (inactive) in assay [15]; 23.7 µM (inactive) in assay [16]; 54 µM (inactive) in assay [17]; > 100 µM (inactive) in assay [18]; 32.2 µM (inactive) in assay [19].
In the case of `CC(=O)Nc1ccc(S(=O)(=O)Nc2nc(-c3ccc(Cl)cc3)cc(N3N=C(c4ccc(Br)cc4)CC3c3ccccc3)n2)cc1` (stereo unspecified), the GI50 was 17 µM (inactive) in assay [1]; 14.4 µM (inactive) in assay [2]; 17.9 µM (inactive) in assay [3]; 12.6 µM (inactive) in assay [4]; 11.1 µM (inactive) in assay [5]; 15.9 µM (inactive) in [20]. The GI50 is 26.1 µM (inactive) in assay [6]; 15 µM (inactive) in [7]; 16.9 µM (inactive) in [8]; 13.9 µM (inactive) in [10]; 7.21 µM (inactive) in assay [12]; 16.6 µM (inactive) in assay [13]. For the same molecule, the GI50 was 14 µM (inactive) in assay [14]; 16 µM (inactive) in [15]; 2.87 µM (inactive) in assay [16]; 15.8 µM (inactive) in assay [17]; 16.3 µM (inactive) in assay [18]; 17.5 µM (inactive) in assay [19].
In the case of `Cc1cccc(NC2=NCCO2)c1Cl`, the GI50 in [1], in assay [2], in assay [3], in assay [4], in assay [5] and in assay [6] was > 100 µM (inactive) throughout. For the same molecule, the GI50 in assay [7], in assay [8], in [9], in assay [10], in [12] and in assay [13] was > 100 µM (inactive) each time. Also, the GI50 in [15], in [16], in [17], in [18] and in [19] was > 100 µM (inactive) each time.
Take `CCCC1C(C#N)(C#N)C(C#N)=C(N)C1(C)C(C)=O` (stereo unspecified): the GI50 in [1] is > 100 µM (inactive); in assay [2], 73.1 µM (inactive); in [3] it was > 100 µM (inactive); in [4] it was > 100 µM (inactive); in assay [5], > 100 µM (inactive); in [20], > 100 µM (inactive). Besides, the GI50 in [6] was > 100 µM (inactive); in assay [7], > 100 µM (inactive); in assay [9], > 100 µM (inactive); in [10], > 100 µM (inactive); in [11] it was 10.1 µM (inactive); in assay [12] it was 37.3 µM (inactive). Besides, the GI50 in assay [13] was > 100 µM (inactive); in assay [14] it was > 100 µM (inactive); in [15], > 100 µM (inactive); in [16] it was > 100 µM (inactive); in [17] it was > 100 µM (inactive); in [19], 86.9 µM (inactive).
Turning to `COc1cc(Oc2c(C)c(Cl)c(OC)c(Cl)c2OC)c2c(c1Cl)COC2=O`, the GI50 in [1] was 10 µM (inactive); in assay [2] it was 6.34 µM (inactive); in assay [3], 17.6 µM (inactive); in assay [4], 33.7 µM (inactive); in [5] it was 54.7 µM (inactive); in assay [20], 17 µM (inactive). Moreover, the GI50 in assay [6] is 45.1 µM (inactive); in [7], 9.23 µM (inactive); in assay [8], 10.7 µM (inactive); in [9], 21.8 µM (inactive); in assay [10], 24.2 µM (inactive); in [11], 10.4 µM (inactive). In addition, the GI50 in assay [12] was 2.32 µM (inactive); in assay [13], 15.6 µM (inactive); in assay [15] it was 42.2 µM (inactive); in assay [16] it was 14.4 µM (inactive); in assay [17] it was 41.5 µM (inactive); in [19], 31.9 µM (inactive).
For `COC(=O)C1CCCN1C(=O)C(Cc1cn(S(=O)(=O)c2ccc(C)cc2)cn1)NC(=O)OC(C)(C)C` (stereo unspecified), the GI50 in assay [1], in assay [2], in assay [3], in [4], in [5] and in [6] was > 100 µM (inactive) throughout. Besides, the GI50 in assay [7], in assay [8], in [10], in [12], in [14] and in assay [15] was > 100 µM (inactive) each time. The GI50 in assay [16], in assay [18] and in [19] was > 100 µM (inactive) throughout.
For `CC1(C)[C@@H]2CC[C@@]1(C)[C@@H]1O[C@@H](O[C@@H](CN)c3cc(Cl)c(OCc4ccccc4)c(OCc4ccccc4)c3)C[C@H]21`, the GI50 was 0.16 µM (active) in assay [1]; 0.15 µM (active) in assay [2]; 0.189 µM (active) in [3]; 0.187 µM (active) in [5]; 0.166 µM (active) in [20]; 0.167 µM (active) in assay [6]. Also, the GI50 in assay [7] was 0.151 µM (active); in assay [9], 0.192 µM (active); in [10], 0.155 µM (active); in assay [11], 0.165 µM (active); in assay [12], 0.156 µM (active); in [13] it was 0.183 µM (active). The GI50 in assay [14] was 0.158 µM (active); in assay [15], 0.183 µM (active); in [16] it was 0.134 µM (active); in assay [17] it was 0.175 µM (active); in [18], 0.179 µM (active); in assay [19], 0.175 µM (active).
Consider `CCCCCCCCOc1ccc(/C=C/C2=[N+](CCO)CCO2)cc1`, for which the GI50 was 3.65 µM (inactive) in assay [1]; 2.7 µM (inactive) in [2]; 3.14 µM (inactive) in assay [3]; 4.28 µM (inactive) in [4]; 3.53 µM (inactive) in [5]; 3.08 µM (inactive) in assay [6]. Also, the GI50 in [7] was 2.4 µM (inactive); in assay [8], 3.07 µM (inactive); in [9] it was 5.27 µM (inactive); in [10] it was 3.78 µM (inactive); in [11], 7.05 µM (inactive); in assay [12] it was 2.07 µM (inactive). The GI50 in assay [13] was 3.96 µM (inactive); in assay [14], 2.94 µM (inactive); in [15] it was 3.83 µM (inactive); in assay [16] it was 4.65 µM (inactive); in assay [17], 2.54 µM (inactive); in assay [18] it was 8.63 µM (inactive). The GI50 in assay [19] was 3.38 µM (inactive).
For the molecule `N=c1sc(N2CCOCC2)nn1CC(=O)c1ccccc1`, the GI50 in assay [1], in assay [2], in [3], in [4], in assay [5] and in [6] was > 100 µM (inactive) in each case. The GI50 in assay [7], in [8], in [9], in [10], in assay [11] and in [12] was > 100 µM (inactive) each time. The GI50 was > 100 µM (inactive) in [13]; 96.8 µM (inactive) in assay [14]; > 100 µM (inactive) in [15]; 53.5 µM (inactive) in [16]; > 100 µM (inactive) in assay [17]; > 100 µM (inactive) in [18]. For the same molecule, the GI50 in [19] is > 100 µM (inactive).
Take `CCCCn1c(O)nc2c(N)ncnc21`: the GI50 in assay [2], in assay [3], in assay [4], in [5], in assay [20] and in assay [6] was > 100 µM (inactive) throughout. Besides, the GI50 in assay [7], in assay [8], in [9], in assay [10], in assay [12] and in assay [13] was > 100 µM (inactive) throughout. The GI50 in assay [14], in [15], in assay [16], in [17], in assay [18] and in assay [19] was > 100 µM (inactive) throughout.
